Results from patent US6646009B2, “N-(aryl)-2-arylethenesulfonamides and therapeutic uses thereof” (Temple University — Of Commonwealth System of Higher …, priority 2001, dated 2003).

Assays:
HCT-116 = test: GI50 growth inhibition, HCT-116; type: cell-based; conditions: Homo sapiens; HCT-116, Colo-rectal
Procedure: (§1) The effect of the N-(aryl)-2-arylethenesulfonamides on normal fibroblasts and on tumor cells was determined by the assay described by Latham et al, Oncogene 12:827-837 (1996). Normal diploid lung human fibroblasts (HFL-1) or tumor cells (prostate, colorectal, breast, glial, pancreatic ovarian or leukemic) were plated in 6-well dishes at a cell density of 1.0×10^5 cells per 35-mm^2 well. The plated cells were treated 24 hours later with various concentrations of N-(aryl)-2-arylethenesulfonamide dissolved in dimethyl sulfoxide (DMSO). The total number of viable cells was determined 96 hours later by trypsinizing the wells and counting the number of viable cells, as determined by trypan blue exclusion, using a hemacytometer. Each compound tested (Exs. 1-17) inhibited cell proliferation when tested at a concentration of 30 micromolar. […] Normal HFL cells were treated with the same compounds under the same conditions of concentration and time.
(§2) A dose response curve was plotted for the tumor growth inhibitory effect of (E)-4-methoxystyryl-N-4-fluorophenyl sulfonamide on the estrogen-unresponsive breast cell line BT-20 (FIG. 1). The GI50 (the concentration of drug resulting in 50% net loss of growth inhibition) was determined as 10 μM. […] The (E)-4-methoxystyryl-N-4-fluorophenyl sulfonamide GI50 for the same compound against the cell lines listed in Table 7 was determined in the same manner.

DU145 = test: GI50 growth inhibition, DU145; type: cell-based
Procedure: as §1, §2

CEM = test: GI50 growth inhibition, CEM; type: cell-based; conditions: Homo sapiens, CCRF-CEM, Leukemic
Procedure: as §1, §2

COLO-320 = test: GI50 growth inhibition, COLO-320; type: cell-based; conditions: Homo sapiens; COLO-320, Colo-rectal
Procedure: as §1, §2

SK-ov-3 = test: GI50 growth inhibition, SK-ov-3; type: cell-based; conditions: Homo sapiens; SK-ov-3, Ovarian
Procedure: as §1, §2

[1] = system: normal fibroblast line HFL-1; test: GI50 growth inhibition, HFL-1; type: cell-based; conditions: Homo sapiens, HFL1; HFL-1, Normal diploid lung
Procedure: as §1, §2

SK-br-3 = test: GI50 growth inhibition, SK-br-3; type: cell-based; conditions: Homo sapiens; SK-br-3, Breast
Procedure: as §1, §2

BT20 cells = test: Induction of apoptosis: PARP cleavage Western blot, BT20; type: cell-based; conditions: 20 μM, 96 hours
From the text: (§3) The caspases and the ICE-family proteases are cysteine proteases which are activated during apoptosis (Patel et al., FASEB 10:587-597, 1996). The cleavage of poly(ADP-ribose) polymerase (PARP), which is a target of caspase-3, apopain, and several other activated proteases, is a widely used and accepted marker for apoptosis (Nicholson et al., Nature 376(6533):37-43, 1995; Lippke et al., J. Biol. Chemistry 271:1825, 1996). For this assay, BT20 cells, an estrogen receptor negative breast carcinoma, and HFL-1 cells, normal lung fibroblasts, were treated with either (E)-4-methoxystyryl-N-4-fluorophenyl sulfonamide at a final concentration of 20 μM or dimethyl sulfoxide (DMSO) for 96 hours. The cells were then lysed in RIPA buffer and 100 μg of total cellular protein from each sample was resolved on a 10% SDS-polyacrylamide gel. The proteins were then Western blotted onto PROTRAN filter paper (S/S) and the filter was then probed with antibody (Boehringer Mannheim) specific for PARP. This antibody recognizes both the 116 kDa full length PARP and the 83 kDa cleaved product. […] The BT20 cells treated with DMSO for the same amount of time also had no activation of the apoptotic pathway.

DLD-1 = test: GI50 growth inhibition, DLD-1; type: cell-based
Procedure: as §1, §2

PC-3 = test: GI50 growth inhibition, PC-3; type: cell-based; conditions: Homo sapiens; PC-3, Prostate
Procedure: as §1, §2

[2] = system: estrogen-unresponsive breast cell line BT-20; test: GI50 growth inhibition, BT-20; type: cell-based
Procedure: as §1, §2

U87 = test: GI50 growth inhibition, U87; type: cell-based; conditions: Homo sapiens, U-87 MG; U87, Glioblastoma
Procedure: as §1, §2

LNCAP = test: GI50 growth inhibition, LNCAP; type: cell-based; conditions: Homo sapiens, Prostate
Procedure: as §1, §2

HFL-1 cells = test: Induction of apoptosis: PARP cleavage Western blot, HFL-1; type: cell-based, human; conditions: 20 μM, 96 hours
From the text: as §3

MIA-PaCa-2 = test: GI50 growth inhibition, MIA-PaCa-2; type: cell-based; conditions: Homo sapiens; MIA-PaCa-2, Pancreatic
Procedure: as §1, §2

H157 = test: GI50 growth inhibition, H157; type: cell-based; conditions: result in words
Procedure: The effect of the N-(aryl)-2-arylethenesulfonamides on normal fibroblasts and on tumor cells was determined by the assay described by Latham et al, Oncogene 12:827-837 (1996). Normal diploid lung human fibroblasts (HFL-1) or tumor cells (prostate, colorectal, breast, glial, pancreatic ovarian or leukemic) were plated in 6-well dishes at a cell density of 1.0×10^5 cells per 35-mm^2 well. The plated cells were treated 24 hours later with various concentrations of N-(aryl)-2-arylethenesulfonamide dissolved in dimethyl sulfoxide (DMSO). The total number of viable cells was determined 96 hours later by trypsinizing the wells and counting the number of viable cells, as determined by trypan blue exclusion, using a hemacytometer. Each compound tested (Exs. 1-17) inhibited cell proliferation when tested at a concentration of 30 micromolar. […]
as §2, with “1).” for “1). The GI50 (the concentration of drug resulting in 50% net loss of growth inhibition) was determined as 10 μM.”
The GI50 of (E)-4-methoxystyryl-N-3-fluoro-4-methoxyphenyl sulfonamide was determined for the following cell lines: BT20, DU145, H157 and DLD-1.

Row | GI50 (HCT-116) [µM] | GI50 (DU145; Homo sapiens, DU-145, DU145, Prostate) [µM] | GI50 (COLO-320) [µM] | GI50 (DLD-1; Homo sapiens, DLD-1, Colo-rectal) [µM] | GI50 (PC-3) [µM] | GI50 ([2]; Homo sapiens, BT-20 (BT2O), Breast) [µM] | GI50 (U87) [µM] | GI50 (LNCAP) [µM] | GI50 (MIA-PaCa-2) [µM] | GI50 compared with (E)-4-methoxystyryl-N-4-fluorophenyl sulfonamide (DU145; DU145, result in words) | GI50 compared with (E)-4-methoxystyryl-N-4-fluorophenyl sulfonamide (DLD-1; DLD-1, result in words) | GI50 compared with (E)-4-methoxystyryl-N-4-fluorophenyl sulfonamide ([2]; BT20, result in words) | GI50 compared with (E)-4-methoxystyryl-N-4-fluorophenyl sulfonamide (H157) | SMILES | GI50 (CEM) [µM] | GI50 (SK-ov-3) [µM] | GI50 [1] [µM] | GI50 (SK-br-3) [µM] | PARP cleavage (83 kDa product, marker for apoptosis) (BT20 cells) | PARP cleavage (83 kDa product, marker for apoptosis) (HFL-1 cells)
1 | 20 | 10 | 5 | 15 | 20 | 10 | 20 | 20 | 7 | – | – | – | – | COc1ccc(/C=C/S(=O)(=O)Nc2ccc(F)cc2)cc1 [Example 4, (E)-4-methoxystyryl-N-4-fluorophenyl sulfonamide] | 30 | 15 | 50 | 30 | presence of the 83 kDa PARP cleavage product | no cleavage of the full length PARP
2 | – | – | – | – | – | – | – | – | – | in essential agreement | in essential agreement | in essential agreement | in essential agreement | COc1ccc(/C=C/S(=O)(=O)Nc2ccc(OC)c(F)c2)cc1 [Example 5, (E)-4-methoxystyryl-N-3-fluoro4-methoxyphenyl sulfonamide] | – | – | – | – | – | –
